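Exposure lasted 48 hours, with cells grown in 96-well plates and compounds tested at five concentrations. TGI: total growth inhibition.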
Key:
Test in all cases: NCI anticancer screen, dose series, 48 h
786-0 renal = tested on: 786-0 renal
A498 renal = tested on: A498 renal
MDA-MB-231 breast = tested on: MDA-MB-231 breast
MDA-N = tested on: MDA-N
NCI-H23 lung = tested on: NCI-H23 lung
SK-MEL-5 melanoma = tested on: SK-MEL-5 melanoma
SN12C renal = tested on: SN12C renal
SNB-75 CNS = tested on: SNB-75 CNS
HCC-2998 colon = tested on: HCC-2998 colon
HCT-15 colon = tested on: HCT-15 colon
HOP-92 NSCLC = tested on: HOP-92 NSCLC

## NNC(=O)Cn1c2ccc(Br)cc2c2nc3ccccc3nc21
786-0 renal
  TGI: > 100 µM
A498 renal
  TGI: > 100 µM
MDA-MB-231 breast
  TGI: > 100 µM
MDA-N
  TGI: > 100 µM
NCI-H23 lung
  TGI: > 100 µM
SK-MEL-5 melanoma
  TGI: > 100 µM
SN12C renal
  TGI: > 100 µM
SNB-75 CNS
  TGI: > 100 µM

## N#Cc1ccccc1-c1nc2c3c(c(N)ccc3n1)C(=O)c1ccccc1-2
786-0 renal
  TGI: > 100 µM
A498 renal
  TGI: > 100 µM
HCC-2998 colon
  TGI: > 100 µM
HCT-15 colon
  TGI: > 100 µM
HOP-92 NSCLC
  TGI: > 100 µM
MDA-MB-231 breast
  TGI: > 100 µM
MDA-N
  TGI: > 100 µM
NCI-H23 lung
  TGI: > 100 µM
SK-MEL-5 melanoma
  TGI: 74.5 µM
SN12C renal
  TGI: > 100 µM
SNB-75 CNS
  TGI: > 100 µM

## O=C1c2cc3c(cc2CC12Cc1ccc4c(c1C2=O)CCCC4)CCCC3 (stereo not drawn)
786-0 renal
  TGI: 46.1 µM
A498 renal
  TGI: 59.7 µM
HCC-2998 colon
  TGI: > 100 µM
HCT-15 colon
  TGI: > 100 µM
HOP-92 NSCLC
  TGI: 64.2 µM
MDA-MB-231 breast
  TGI: > 100 µM
MDA-N
  TGI: > 100 µM
NCI-H23 lung
  TGI: > 100 µM
SK-MEL-5 melanoma
  TGI: > 100 µM
SNB-75 CNS
  TGI: > 100 µM

## COc1ccc(-c2cc(-c3ccc(Nc4ccnc5cc(Cl)ccc45)cc3)[nH]c(=O)c2C#N)c2ccccc12
786-0 renal
  TGI: 18.3 µM
A498 renal
  TGI: 49.7 µM
HCC-2998 colon
  TGI: > 92.9 µM
HCT-15 colon
  TGI: > 100 µM
HOP-92 NSCLC
  TGI: 30.8 µM
MDA-MB-231 breast
  TGI: 51.1 µM
MDA-N
  TGI: 6.02 µM
NCI-H23 lung
  TGI: > 91.6 µM
SK-MEL-5 melanoma
  TGI: > 63.4 µM
SN12C renal
  TGI: 46.9 µM
SNB-75 CNS
  TGI: 95.4 µM

## Oc1c([Si](c2ccccc2)(c2ccccc2)c2ccccc2)cc2ccccc2c1-c1c(O)c([Si](c2ccccc2)(c2ccccc2)c2ccccc2)cc2ccccc12
786-0 renal
  TGI: > 100 µM
A498 renal
  TGI: > 100 µM
HCC-2998 colon
  TGI: > 100 µM
HCT-15 colon
  TGI: > 100 µM
HOP-92 NSCLC
  TGI: > 100 µM
MDA-MB-231 breast
  TGI: > 100 µM
MDA-N
  TGI: > 100 µM
NCI-H23 lung
  TGI: > 100 µM
SK-MEL-5 melanoma
  TGI: > 100 µM
SNB-75 CNS
  TGI: > 100 µM

## COC(=O)C(CSSC[C@H](N/C(C)=C/C(C)=O)C(=O)OC)N/C(C)=C/C(C)=O (stereo partly drawn)
786-0 renal
  TGI: > 100 µM
A498 renal
  TGI: > 100 µM
HOP-92 NSCLC
  TGI: > 100 µM
MDA-MB-231 breast
  TGI: > 100 µM
MDA-N
  TGI: > 100 µM
NCI-H23 lung
  TGI: > 100 µM
SK-MEL-5 melanoma
  TGI: > 100 µM
SN12C renal
  TGI: > 100 µM
SNB-75 CNS
  TGI: > 100 µM

## COc1ccc(-n2c(=O)n(C)c(=O)n2-c2ccc(OC)cc2)cc1
786-0 renal
  TGI: > 100 µM
A498 renal
  TGI: > 100 µM
HCT-15 colon
  TGI: > 100 µM
HOP-92 NSCLC
  TGI: > 100 µM
MDA-MB-231 breast
  TGI: > 100 µM
MDA-N
  TGI: > 100 µM
NCI-H23 lung
  TGI: > 100 µM
SK-MEL-5 melanoma
  TGI: > 100 µM
SN12C renal
  TGI: > 100 µM
SNB-75 CNS
  TGI: > 100 µM

## COc1cc(/C=C2\Sc3scc(-c4cccc([N+](=O)[O-])c4)[n+]3C2=O)cc(OC)c1OC
786-0 renal
  TGI: 22.2 µM
A498 renal
  TGI: > 100 µM
HCC-2998 colon
  TGI: 27.5 µM
HOP-92 NSCLC
  TGI: 73.9 µM
MDA-MB-231 breast
  TGI: 25.2 µM
MDA-N
  TGI: 27.1 µM
NCI-H23 lung
  TGI: 33.2 µM
SK-MEL-5 melanoma
  TGI: 17.8 µM
SN12C renal
  TGI: 42.5 µM
SNB-75 CNS
  TGI: 8.77 µM

## COc1ccc(-c2c(C#N)c(S)n(NS(=O)(=O)c3ccc(C)cc3)c(=O)c2C#N)cc1
786-0 renal
  TGI: 31.7 µM
A498 renal
  TGI: > 100 µM
HCC-2998 colon
  TGI: > 100 µM
HCT-15 colon
  TGI: 32.4 µM
HOP-92 NSCLC
  TGI: > 100 µM
MDA-MB-231 breast
  TGI: 42.7 µM
MDA-N
  TGI: 37.5 µM
SK-MEL-5 melanoma
  TGI: 30 µM
SN12C renal
  TGI: 34.8 µM
SNB-75 CNS
  TGI: > 100 µM

## CSC1=N/C(=C\c2ccco2)C(=O)N1CN1CCOCC1
786-0 renal
  TGI: > 100 µM
A498 renal
  TGI: > 100 µM
HCC-2998 colon
  TGI: 97 µM
HCT-15 colon
  TGI: > 100 µM
MDA-MB-231 breast
  TGI: > 100 µM
MDA-N
  TGI: > 100 µM
NCI-H23 lung
  TGI: > 100 µM
SK-MEL-5 melanoma
  TGI: > 80.3 µM
SN12C renal
  TGI: > 88.7 µM
SNB-75 CNS
  TGI: > 100 µM

## O=C(OCCN=c1c2ccccc2ccc2ccccc12)c1ccc([N+](=O)[O-])cc1
786-0 renal
  TGI: > 100 µM
HCC-2998 colon
  TGI: > 100 µM
HCT-15 colon
  TGI: > 100 µM
HOP-92 NSCLC
  TGI: > 100 µM
MDA-MB-231 breast
  TGI: > 100 µM
MDA-N
  TGI: > 100 µM
NCI-H23 lung
  TGI: > 100 µM
SK-MEL-5 melanoma
  TGI: > 100 µM
SN12C renal
  TGI: > 100 µM
SNB-75 CNS
  TGI: > 100 µM

## N#Cc1c(-c2ccc(Cl)cc2)c2c(n(C3OC(CO)C(O)C(O)C3O)c1=S)CCC2 (stereo not drawn)
786-0 renal
  TGI: > 100 µM
HCC-2998 colon
  TGI: 42.1 µM
HCT-15 colon
  TGI: > 100 µM
HOP-92 NSCLC
  TGI: 60.7 µM
MDA-MB-231 breast
  TGI: > 100 µM
MDA-N
  TGI: > 100 µM
NCI-H23 lung
  TGI: 70.6 µM
SK-MEL-5 melanoma
  TGI: 26 µM
SN12C renal
  TGI: > 100 µM
SNB-75 CNS
  TGI: 76.3 µM

## C/C=C(/C)C(=O)O[C@H](C[C@@H](C)[C@H]1CC(c2ccoc2)OC1=O)[C@@]1(C)C(=O)CCC2O[C@]21C (stereo partly drawn)
786-0 renal
  TGI: > 100 µM
A498 renal
  TGI: > 100 µM
HCC-2998 colon
  TGI: > 100 µM
HCT-15 colon
  TGI: > 100 µM
MDA-MB-231 breast
  TGI: > 100 µM
MDA-N
  TGI: > 100 µM
NCI-H23 lung
  TGI: > 100 µM
SK-MEL-5 melanoma
  TGI: > 100 µM
SNB-75 CNS
  TGI: > 100 µM

## CC(=O)c1c(C(F)(F)F)n([O-])c2cc(Cl)c(Cl)cc2[n+]1=O
786-0 renal
  TGI: 0.38 µM
A498 renal
  TGI: 2.5 µM
HCT-15 colon
  TGI: 0.759 µM
HOP-92 NSCLC
  TGI: 0.88 µM
MDA-MB-231 breast
  TGI: 2.99 µM
MDA-N
  TGI: 2.41 µM
NCI-H23 lung
  TGI: 2.71 µM
SK-MEL-5 melanoma
  TGI: 2.06 µM
SN12C renal
  TGI: 2.69 µM
SNB-75 CNS
  TGI: 2.25 µM

## O=C1/C(=N\S(=O)(=O)c2ccccc2)C([n+]2ccc(Cc3ccccc3)cc2)=C([O-])c2ccccc21
786-0 renal
  TGI: 3.58 µM
HCC-2998 colon
  TGI: 2.51 µM
HCT-15 colon
  TGI: 3.36 µM
HOP-92 NSCLC
  TGI: 12.7 µM
MDA-MB-231 breast
  TGI: 9.89 µM
MDA-N
  TGI: 0.346 µM
NCI-H23 lung
  TGI: 1.36 µM
SK-MEL-5 melanoma
  TGI: 0.302 µM
SN12C renal
  TGI: 3.12 µM
SNB-75 CNS
  TGI: 2.64 µM

Reference: PubChem BioAssay (NCI)
